Data on three molecules can be found in patent EP2325185A1, “Plk inhibitor” (GPC Biotech AG, priority 2009, dated 2011).

Where two headings read alike, the source gives them in different places. Where only a bound is given, the exact number is not on record here.

In one data set the test system is NCI-H460 tumor cells. The data set is described as follows: Mouse xenograft model using human NCI-H460 cells. The class given is in vivo. Particulars: for mean body weight / mean body weight change: end of day four after begin of treatment; for mice died: mouse, in vivo. The method, then:
[…]. Human HT-29 cells (ATCC) colon carcinoma cell line are cultured in McCoy's medium (ATCC) supplied with 10% FCS and 1% Pen/Strep. The 2nd passage of cells with approximately 80% confluence is used in the study. Briefly, on Day 0, mice are inoculated with 0.1 ml (total 5x10^6 cells) of HT-29 cell suspension (50x10^6 cells/ml in McCoy's medium without supplements mixed 1:1 with Matrigel) by a subcutaneous injection into the lower right flank under light anesthesia. When the average tumor weights reaches above 100mg, animals with an appropriate tumor size are selected and are randomly divided into treatment groups (10 animals each).
Tumor growth and body weight are monitored and recorded twice a week. Tumors are measured by determining the length and width of the tumor with a digital caliper. Tumor weight is estimated using the following formula: Tumor Weight (mg) = (w^2 x 1) / 2 where w = width and I = length in mm of the tumor.
Toxic deaths are defined as deaths caused by compound treatment and not by advanced disease state. […].
In a model similar to the one described in a), mice were inoculated with NCI-H460 tumor cells, and treated (9 mice for each treatment group) with either vehicle only (NMP:PEG300), compound 1 (70 mg/kg once per week), compound 1 (35 mg/kg twice per week), BI 6727 (70 mg/kg once per week) and gemcitabine (25 mg/kg, once per week) (vivoPharm Europe Limited, Munich, Germany). At the end of day four after begin of treatment, the mean body weight for the compound 1 treatment groups had dropped from 20.5 g to 19.2 g (~5%; standard deviation 2.6 g), and from 20.1 g to 19.3 g (-4%; standard deviation 0.9 g), respectively, and one mouse in the high-dose treatment group had died. In contrast, in the BI 6727 treatment group, the mean body weight had dropped from 20.2 g to 16.2 g (-20%; standard deviation 1.5 g), five mice had died and the remaining mice had to be killed for ethical reasons.
Background: In xenograft studies the graft and the host belong to different species.

A further data set has as its system A-431. The data set is described as follows: SRB cell proliferation assay, A-431. The class given is cell-based. Particulars: Homo sapiens; A-431 (skin); compound 1 tested in racemic mixture. The method, then:
(§1) Cells were exposed to the test compound racemate at various concentrations appropriate to determine an IC50 for 72 hours. Cell proliferation was measured using the SRB assay according to Shekan et al (J Natl Cancer Inst (1990) 82, 1107-112) in order to estimate the IC50 values shown in Table 3. Briefly, cells were plated in 96 well dishes 24 hours prior to compound addition at the densities specified in Table 5.1. The assay was terminated with the addition of cold TCA to a final concentration of 10% after growth medium has been removed and the plates were incubated over night at 4°C. The plates were then washed 5 times with water and 100µl of a Sulforhodamine B solution ([…]) was added to each well. The plates were then incubated for 10 minutes at room temperature before removal of unbound dye by washing with 1% acetic acid. The bound dye was solubilised with 10 mM Trizma base and the absorbance read at OD520.
(§2) Inhibitory activity of the compound (IC) was calculated as % inhibition of cell proliferation compared to cells treated with the solvent (DMSO).
(§3) Table 8.1: 18-Cell Line Panel

In the next data set the test system is HT-29. The data set is described as follows: SRB cell proliferation assay, HT-29. The class given is cell-based. Particulars: Homo sapiens; HT-29 (colon); compound 1 tested in racemic mixture; read-out: IC50. The method, then: as §1, §2, §3
For another data set, the system named is HCT 116. The data set is described as follows: SRB cell proliferation assay, HCT 116. The class given is cell-based. Particulars: Homo sapiens; HCT 116 (colon); compound 1 tested in racemic mixture; read-out: IC50. Here is the method: as §1, §2, §3
The next data set relates to DU 145. As to the kind of experiment: SRB cell proliferation assay, DU 145. The class given is cell-based. Particulars: Homo sapiens; DU 145 (prostate); compound 1 tested in racemic mixture. Here is the method:
as §1, §2, §3

The test system of the next data set is ACHN. As to the kind of experiment: SRB cell proliferation assay, ACHN. The class given is cell-based. Particulars: Homo sapiens; ACHN (kidney); compound 1 tested in racemic mixture. Here is the method: as §1, §2, §3
Another data set concerns A-375. As to the kind of experiment: SRB cell proliferation assay, A-375. The class given is cell-based. Particulars: Homo sapiens; A-375 (melanoma); compound 1 tested in racemic mixture. The method, then:
as §1, §2, §3

Another data set concerns PC-3. The data set is described as follows: SRB cell proliferation assay, PC-3. The class given is cell-based. Particulars: Homo sapiens; PC-3 (prostate); compound 1 tested in racemic mixture. The method, then: as §1, §2, §3
Another data set relates to HeLa. As to the kind of experiment: SRB cell proliferation assay, HeLa. The class given is cell-based. Particulars: Homo sapiens; HeLa (cervix); compound 1 tested in racemic mixture. The method, then:
as §1, §2, §3

Another data set relates to OVCAR-3. The data set is described as follows: SRB cell proliferation assay, OVCAR-3. Particulars: Homo sapiens; OVCAR-3 (ovary); compound 1 tested in racemic mixture. The class given is cell-based. The method, then:
as §1, §2, §3

A further data set relates to SW620. As to the kind of experiment: SRB cell proliferation assay, SW620. The class given is cell-based. Particulars: Homo sapiens, SW-620; SW620 (colon); compound 1 tested in racemic mixture. The method, then: as §1, §2, §3
Another data set relates to A549. As to the kind of experiment: SRB cell proliferation assay, A549. Particulars: Homo sapiens; A549 (lung); compound 1 tested in racemic mixture. The class given is cell-based. Here is the method: as §1, §2, §3
The next data set relates to MDA-MB-468. As to the kind of experiment: SRB cell proliferation assay, MDA-MB-468. The class given is cell-based. Particulars: MDA-MB-468 (breast), compound 1 tested in racemic mixture. The method, then: as §1, §2, §3
A further data set relates to MDA-MB-231. As to the kind of experiment: SRB cell proliferation assay, MDA-MB-231. The class given is cell-based. Particulars: Homo sapiens; MDA-MB-231 (breast); compound 1 tested in racemic mixture. The method, then:
as §1, §2, §3

Another data set deals with NCI-H460. The data set is described as follows: SRB cell proliferation assay, NCI-H460. The class given is cell-based. Particulars: Homo sapiens; NCI-H460 (NSCLC); compound 1 tested in racemic mixture. Here is the method: as §1, §2, §3
Another data set deals with SK-MEL-5. As to the kind of experiment: SRB cell proliferation assay, SK-MEL-5. The class given is cell-based. Particulars: Homo sapiens; SK-MEL-5 (melanoma); compound 1 tested in racemic mixture. The method, then:
as §1, §2, §3

A further data set concerns COLO 205. The data set is described as follows: SRB cell proliferation assay, COLO 205. Particulars: Homo sapiens; COLO 205 (colon); compound 1 tested in racemic mixture. The class given is cell-based. Here is the method: as §1, §2, §3
A further data set deals with IMR-90. As to the kind of experiment: SRB cell proliferation assay, IMR-90. The class given is cell-based. Particulars: Homo sapiens; IMR-90 (lung); compound 1 tested in racemic mixture; read-out: IC50. The method, then: as §1, §2, §3
Another data set concerns SK-MEL-28. The data set is described as follows: SRB cell proliferation assay, SK-MEL-28. The class given is cell-based. Particulars: Homo sapiens; SK-MEL-28 (melanoma); compound 1 tested in racemic mixture. The method, then:
as §1, §2, §3

The target in the next data set is Plk1 (Homo sapiens, UniProt P53350). The data set is described as follows: Standard selectivity panel (ProQinase), Plk1. The class given is biochemical. More on the design: purchased ProQinase GmbH, Freiburg, Germany. Particulars: duplicates, read-out: inhibited Plk1. Here is the method:
(§4) The compound of the present invention was tested in a standard selectivity panel including Plkl and 255 other kinases (ProQinase GmbH, Freiburg, Germany), under conditions of non-disclosure, non-dissemination and non-use.
(§5) In brief, compound 1 (see Table 1) was tested at 1 µM in duplicates against Plk1 as well as against 255 other protein kinases, including Abl, Aktl, Aur A, Kit, Raf-1, Cdkl/CycB1, Chk1, FGF-R3, Flt3, Fyn, IGF1-R, INS-R, Lyn, p38a, PAK4, PKCalpha, Ret, ROCK2, Src, TIE2, and VEGF-R2. The test compound 1 inhibited Plk1 by more than about 90%, only three other kinases were inhibited by between about 50% and about 90%, about 13 kinases by between about 10% and about 50%, and all other kinases were inhibited by less than about 10%.

Data set [1] has as its system 255 other protein kinases. The data set is described as follows: Standard selectivity panel (ProQinase), 255 other kinases. The class given is biochemical. Particulars: 1 µM, duplicates; all other kinases. Here is the method:
as §4, §5

In data set [2] the test system is panel of 57 tumor cell lines. As to the kind of experiment: Panel of 57 tumor cell lines (OncoLead), growth inhibition. The class given is cell-based. The method, then:
In a similar experiment, the inhibitory activity of compound 1 was tested against a panel of 57 tumor cell lines (OncoLead GmbH&Co.KG, Martinsried, Germany) under conditions of non-disclosure, non-dissemination and non-use.
In 18 cell lines, the GI50 value was between 1 µM and 0.1 µM, and in 31 cell lines, the GI50 value was below 0.1 µM.

Chain of Plk1 (P53350 whole entry, species assumed): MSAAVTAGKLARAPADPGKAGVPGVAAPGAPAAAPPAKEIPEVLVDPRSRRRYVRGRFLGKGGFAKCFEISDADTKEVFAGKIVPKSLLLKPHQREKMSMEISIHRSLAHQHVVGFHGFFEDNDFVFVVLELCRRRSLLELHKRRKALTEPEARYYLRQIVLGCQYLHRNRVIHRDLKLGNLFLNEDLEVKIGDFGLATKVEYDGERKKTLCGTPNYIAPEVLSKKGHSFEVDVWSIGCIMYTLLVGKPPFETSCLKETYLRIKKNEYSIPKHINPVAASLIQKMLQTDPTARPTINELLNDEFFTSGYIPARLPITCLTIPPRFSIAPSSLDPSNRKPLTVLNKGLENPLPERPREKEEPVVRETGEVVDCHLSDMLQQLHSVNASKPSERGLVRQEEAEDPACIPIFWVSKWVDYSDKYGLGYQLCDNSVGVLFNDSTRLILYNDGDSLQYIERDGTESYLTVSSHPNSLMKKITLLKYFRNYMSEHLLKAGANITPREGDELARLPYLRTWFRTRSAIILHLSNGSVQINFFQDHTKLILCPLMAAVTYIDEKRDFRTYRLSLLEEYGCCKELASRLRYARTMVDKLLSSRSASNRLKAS

In the case of `CC[C@@H]1C(=O)N(C)c2cnc(Nc3ccc(C(=O)N[C@H]4CC[C@H](N5CCN(CC6CC6)CC5)CC4)cc3OC)nc2N1C(C)C` [BI 6727, reference compound], in the data set on NCI-H460 tumor cells (70 mg/kg once per week), the mean body weight is given as 16.2 g and the “mean body weight change” value is on record as -20%. In the data set on NCI-H460 tumor cells, the mice died entry was “five”.
By IC50 is commonly meant the concentration that inhibits the measured activity by half. With `CC[C@@H]1C(=O)N(C)c2cnc(Nc3ccc(C(=O)NC4CCN(C)CC4)cc3OC)nc2N1C1CCCC1` [BI 2536, reference compound], the IC50 in the data set with A-431, with HT-29, with HCT 116, in the data set on DU 145, with ACHN and in the data set with A-375 was under 1000 nM in each case. In addition, the IC50 with PC-3 was under 1000 nM; in the data set with HeLa it was under 1000 nM; in the data set on OVCAR-3, under 1000 nM; in the data set on SW620, under 1000 nM; with A549, under 1000 nM; in the data set on MDA-MB-468, “plateau at ∼50%”. Further, the concentration for half-maximal inhibition (IC50) in the data set with MDA-MB-231 was under 1000 nM; with NCI-H460, under 1000 nM; with SK-MEL-5, under 1000 nM; in the data set on COLO 205, under 1000 nM; in the data set with IMR-90, over 1000 nM; with SK-MEL-28 it was under 1000 nM.
As usually defined, the GI50 is the concentration giving 50% growth inhibition. Read a high GI50 as less potent growth inhibition. Take `CC[C@@H]1C(=O)N(C)c2cnc(Nc3ccc(C(=O)N[C@H]4CC[C@H](N5CCN(CC6CC6)CC5)CC4)cc3OC)nc2N1N(C)C` [Compound 1, (7R)-N-[trans-4-(4-Cyclopropylmethyl-piperazin-1-yl)-cyclohexyl]-4-(8-dimethylamino-7-ethyl-5-methyl-6-oxo-5,6,7,8-tetrahydro-pteridin-2-ylamino)-3-methoxy-benzamide]: the concentration for half-maximal inhibition (IC50) in the data set on A-431, with HT-29, in the data set on HCT 116, in the data set with DU 145, with ACHN and with A-375 was under 1000 nM throughout. Further, the IC50 is under 1000 nM in the data set on PC-3; under 1000 nM in the data set on HeLa; under 1000 nM in the data set with OVCAR-3; under 1000 nM in the data set with SW620; under 1000 nM in the data set on A549; over 1000 nM in the data set on MDA-MB-468 (Homo sapiens, read-out: IC50). In addition, the IC50 was under 1000 nM with MDA-MB-231; under 1000 nM in the data set with NCI-H460; under 1000 nM with SK-MEL-5; under 1000 nM with COLO 205; over 1000 nM with IMR-90; over 1000 nM in the data set with SK-MEL-28. The inhibition at 1 µM at Plk1 was over 90%. In addition, the kinases inhibited result in data set [1] is recorded as “less than 10%”. The figures for the mean body weight in the data set on NCI-H460 tumor cells (35 mg/kg twice per week) and in the data set with NCI-H460 tumor cells (70 mg/kg once per week) were 19.3 g and 19.2 g, respectively. Besides, the “mean body weight change” value with NCI-H460 tumor cells (35 mg/kg twice per week) was -4%; in the data set on NCI-H460 tumor cells (70 mg/kg once per week), ~ 5%. Further, in the data set with NCI-H460 tumor cells (70 mg/kg once per week and 35 mg/kg twice per week, compared with vehicle only or gemcitabine groups), the tumor growth entry is listed as “a reduction of tumor growth could be observed”. In addition, in the data set with NCI-H460 tumor cells, the mice died result is recorded as “one”. Moreover, the 50% growth inhibitory concentration (GI50) in data set [2] (in 18 cell lines of 57) is 100 to 1000 nM; in data set [2] (in 31 cell lines of 57), under 100 nM; in [2] (in about 49 cell lines of 57) it was under 1000 nM.
